{"source": "patent US4898861A", "about": "“Method for inhibiting the proliferation of tumor cells” (Hoffmann-La Roche Inc., priority 1988, dated 1990)", "key": {"[1]": {"target": "T1, peripheral binding site on thymoma cells (Mus musculus, UniProt P50637)", "T1 construct": "host or cells: AKR mouse thymoma line BW 5147.6.1.4.Oua^r.1; (washed cells in BGS buffer)", "T1 sequence (P50637 whole entry)": "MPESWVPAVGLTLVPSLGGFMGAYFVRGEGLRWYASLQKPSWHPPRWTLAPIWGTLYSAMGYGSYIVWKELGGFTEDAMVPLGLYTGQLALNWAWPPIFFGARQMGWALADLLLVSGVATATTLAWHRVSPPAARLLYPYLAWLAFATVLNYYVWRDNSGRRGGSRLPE", "test": "Binding of tritiated 7-chloro-5-(4-chlorophenyl)-1,3-dihydro-1-methyl-2H-1,4-benzodiazepin-2-one to thymoma cells (saturation, association, dissociation)", "method": "Thymoma cells, AKR mouse thymoma line, BW 5147.6.1.4.Oua^r.1.(Cell Distribution Center, Salk Institute, San Diego, Calif.), were grown in Iscove's Modified Dulbecco's Medium (IMDM) containing 5 percent fetal calf serum, collected by centrifugation at 100×g and washed in Balanced Glucose Salt (BGS) buffer, the composition of which is: KCl, 5.0 mM; NaCl, 120.0 mM; Na2 HPO4, 5.0 mM; Tris, 5.0 mM; CaCl2, 0.6 mM; MgSO4, 1.0 mM and glucose, 5.5 mM with a final pH of 7.4. Incubation and binding of tritiated 7-chloro-5-(4-chlorophenyl)-1,3-dihydro-1-methyl-2H-1,4-benzodiazepin-2-one to thymoma cells was carried out in BGS buffer at 0° C. for 40 minutes with the indicated concentrations of labeled ligand. To assay the binding, the rapid filtration method was utilized as outlined in the article of Taniguchi et al., Life Science, 27, 171-178 (1980) and 10 μM of unlabeled diazepam was used as the competitive inhibitor of binding to determine the nonspecific binding. A Saturation and Scratchard plot of the binding data using least square fit to define the regression line (r=0.97) was utilized (FIG. 1 and Insert)."}, "[2]": {"system": "DS 19 Friend erythroleukemia cell line (FEL)", "test": "Induction of differentiation of FEL cells (hemoglobin synthesis, benzidine staining)", "type": "cell-based, mouse", "settings": "for EC50 / EC20 / EC10: Mus musculus, 120 h, 5 days; for EC50: read-out: ED50 (concentration required to induce 50% of the FEL cells); for EC20: read-out: ED20 (concentration required to induce 20% of the FEL cells); for EC10: read-out: ED10 (concentration required to induce 10% of the FEL cells)", "method": "A DS 19 Friend erythroleukemia cell line (FEL) was utilized as the model for studying the effects of various benzodiazepines on cellular differentiation. The Friend lines were derived from mouse (DBA/2) spleen cells infected by the Friend virus complex. The FEL cells are a widely used model system for studying differentiation. […] The protocol utilized consisted of the benzidine staining method. Cells were seeded at 1×10^4 ml and incubated with inducers in Coster Culture Clusters ([…]) for 5 days. On the 5th day, two hundred (200) μl aliquots of cells were mixed with 100 μl of 0.2% benzidine dihydrochloride in 0.5N acetic acid with 1% of 30% H2 O2. Cells that stained blue were scored in a hemacytometer as a % of total cell number.\n(§1) Of twenty five (25) of the benzodiazepines tested it was observed that sixteen induced differentiation (weakly to strongly active) in a concentration-dependent manner. The concentration of each compound required to induce 50%, 20% or 10% of the FEL cells along with the half-maximal concentrations for each compound required to inhibit 50% of the binding of 7-chloro-5-(4-chlorophenyl)-1,3-dihydro-1-methyl-2H-1,4-benzodiazepine-2-one to the FEL cells (IC50) is listed in the following table: […]"}, "[3]": {"target": "T2, peripheral-type benzodiazepine sites on FEL cells (Mus musculus, UniProt P50637)", "T2 construct": "endogenous in cells; host or cells: DS 19 Friend erythroleukemia cell line (FEL)", "T2 sequence (P50637 whole entry)": "as above", "test": "Inhibition of binding of 7-chloro-5-(4-chlorophenyl)-1,3-dihydro-1-methyl-2H-1,4-benzodiazepine-2-one to FEL cells", "from_the_text": "as §1"}, "[4]": {"system": "Swiss 3T3 cells", "settings": "Clarke and Ryan, Nature 287, 160-161 (1980), read-out: ED50 (inhibition of proliferation); cited from earlier work"}, "[5]": {"target": "T1, peripheral binding site on thymoma cells", "test": "Inhibition of tritiated diazepam binding to thymoma cells"}, "[6]": {"settings": "FEL cells, compounds 1-12, read-out: IC50 (inhibition of binding to FEL cells)"}, "[7]": {"settings": "stereoisomers, equivalent IC50's, read-out: IC50"}, "[8]": {"settings": "FEL cells, compounds 13-16, in μM, read-out: IC50 (inhibition of binding to FEL cells)"}}, "note": "Read-outs that look alike come from different tables or passages of the source."}
{"compound": "CN1C(=O)CN=C(c2ccc(Cl)cc2)c2cc(Cl)ccc21", "note": "[7-chloro-5-(4-chlorophenyl)-1,3-dihydro-1-methyl-2H-1,4-benzodiazepin-2-one]", "values": [{"measurement": "Kd", "setting": "[1]", "result": "4.4 ± 1.1", "unit": "nM"}, {"measurement": "time of incubation to reach binding plateau", "setting": "[1]; 0° C.", "result": 30, "unit": "min"}, {"measurement": "maximum amount of ligand bound (Bmax)", "setting": "[1]; saturation plot, BGS buffer, 0° C., 40 minutes, mean±s.e., n=5", "result": "477±98", "unit": "fmoles per 10^6 cells"}]}
{"compound": "C[C@@H]1N=C(c2ccccc2F)c2cc([N+](=O)[O-])ccc2N(C)C1=O", "note": "[Compound 1, (+)-5-(2-fluorophenyl)-1,3-dihydro-1,3-dimethyl-7-nitro-2H--1,4-benzodiazepin-2-one]", "values": [{"measurement": "induction of differentiation (in words)", "setting": "[2]", "result": "most potent inducer tested"}, {"measurement": "EC50", "setting": "[2]", "result": 9000, "unit": "nM"}, {"measurement": "IC50", "setting": "[3]; [6]", "result": 1.1, "unit": "µM"}, {"measurement": "IC50", "setting": "[3]; [7]", "result": "~1", "unit": "µM"}]}
{"compound": "CN1C(=O)CN=C(c2ccc(O)cc2)c2cc(Cl)ccc21", "note": "[Compound 2, 7-chloro-1,3-dihydro-5-(4-hydroxyphenyl)-1-methyl-2H--1,4-benzodiazepin-2-one]", "values": [{"measurement": "EC50", "setting": "[2]", "result": 20000, "unit": "nM"}, {"measurement": "IC50", "setting": "[3]; [6]", "result": 0.1, "unit": "µM"}]}
{"compound": "COc1ccc(C2=NCC(=O)N(C)c3ccc(Cl)cc32)cc1", "note": "[Compound 3, 7-chloro-5-(4-methoxyphenyl)-1-methyl-3H--1,4-benzodiazepin-2-one]", "values": [{"measurement": "EC50", "setting": "[2]", "result": 33000, "unit": "nM"}, {"measurement": "IC50", "setting": "[3]; [6]", "result": 0.015, "unit": "µM"}]}
{"compound": "CN1C(=O)CN=C(c2ccccc2)c2cc(Cl)ccc21", "note": "[Compound 4, diazepam, reference compound]", "values": [{"measurement": "EC50", "setting": "[2]", "result": 55000, "unit": "nM"}, {"measurement": "IC50", "setting": "[3]; IC50 (inhibition of binding to FEL cells), FEL cells, compounds 1-12", "result": 0.079, "unit": "µM"}, {"measurement": "IC50", "setting": "[4]", "result": "~30000", "unit": "nM"}]}
{"compound": "CN1C(=O)C(O)N=C(c2ccccc2)c2cc(Cl)ccc21", "note": "(stereo not drawn) [Compound 5, 7-chloro-1,3-dihydro-3-hydroxy-1-methyl-5-phenyl-2H--1,4-benzodiazepin-2-one]", "values": [{"measurement": "EC50", "setting": "[2]", "result": 80000, "unit": "nM"}, {"measurement": "IC50", "setting": "[3]; [6]", "result": 0.236, "unit": "µM"}]}
{"compound": "CN1C(=O)CN=C(c2ccccc2)c2ccccc21", "note": "[Compound 6, 1,3-dihydro-1-methyl-5-phenyl-2H--1,4-benzodiazepin-2-one]", "values": [{"measurement": "EC50", "setting": "[2]", "result": 80000, "unit": "nM"}, {"measurement": "IC50", "setting": "[3]; [6]", "result": 0.704, "unit": "µM"}]}
{"compound": "CN1C(=O)CN=C(c2ccc(Cl)cc2)c2cc(F)ccc21", "note": "[Compound 7, 5-(4-chlorophenyl)-7-fluoro-1-methyl-3H--1,4-benzodiazepin-2(1H)--one]", "values": [{"measurement": "EC20", "setting": "[2]", "result": 34000, "unit": "nM"}, {"measurement": "IC50", "setting": "[3]; [6]", "result": 0.013, "unit": "µM"}]}
{"compound": "CN1C(=O)CN=C(c2ccc(Cl)cc2)c2ccccc21", "note": "[Compound 8, 5-(4-chlorophenyl)-1-methyl-3H--1,4-benzodiazepin-2(1H)--one]", "values": [{"measurement": "EC20", "setting": "[2]", "result": 30000, "unit": "nM"}, {"measurement": "IC50", "setting": "[3]; [6]", "result": 0.054, "unit": "µM"}]}
{"compound": "C[C@H]1N=C(c2ccccc2F)c2cc([N+](=O)[O-])ccc2N(C)C1=O", "note": "[Compound 9, (-)-5-(2-fluorophenyl)-1,3-dihydro-1,3-dimethyl-7-nitro-2H--1,4-benzodiazepin-2-one]", "values": [{"measurement": "induction of differentiation (in words)", "setting": "[2]", "result": "moderately active"}, {"measurement": "EC20", "setting": "[2]", "result": 86000, "unit": "nM"}, {"measurement": "IC50", "setting": "[3]; [6]", "result": 1.04, "unit": "µM"}, {"measurement": "IC50", "setting": "[3]; [7]", "result": "~1", "unit": "µM"}]}
{"compound": "CN1C(=O)CN=C(c2ccc(Cl)cc2)c2cc(Cl)ccc21", "note": "[Compound 10, 7-chloro-5-(4-chlorophenyl)-1,3-dihydro-1-methyl-2H--1,4-benzodiazepin-2-one]", "values": [{"measurement": "inhibition of tritiated diazepam binding", "setting": "[5]; 200 nM unlabeled compound", "result": "completely inhibit the binding of tritiated diazepam"}, {"measurement": "EC20", "setting": "[2]", "result": 28000, "unit": "nM"}, {"measurement": "IC50", "setting": "[3]; [6]", "result": 0.006, "unit": "µM"}]}
{"compound": "CN1C(=O)C(O)N=C(c2ccc(Cl)cc2)c2cc(Cl)ccc21", "note": "(stereo not drawn) [Compound 11, 7-chloro-5-(4-chlorophenyl)-3-hydroxy-1,3-dihydro-1-methyl-2H--1,4-benzodiazepin-2-one]", "values": [{"measurement": "EC20", "setting": "[2]", "result": 45000, "unit": "nM"}, {"measurement": "IC50", "setting": "[3]; [6]", "result": 0.02, "unit": "µM"}]}
{"compound": "CN1C(=O)CN=C(c2ccc(F)cc2)c2ccccc21", "note": "[Compound 12, 1-methyl-5-(4-fluorophenyl)-3H--1,4-benzodiazepin-2(1H)--one]", "values": [{"measurement": "EC20", "setting": "[2]", "result": 100000, "unit": "nM"}, {"measurement": "IC50", "setting": "[3]; [6]", "result": 0.327, "unit": "µM"}]}
{"compound": "CN1C(=O)CN=C(c2ccccc2F)c2cc([N+](=O)[O-])ccc21", "note": "[Compound 13, 5-(2-fluorophenyl)-1,3-dihydro-1-methyl-7-nitro-2H--1,4-benzodiazepin-2-one]", "values": [{"measurement": "EC10", "setting": "[2]", "result": 32000, "unit": "nM"}, {"measurement": "IC50", "setting": "[3]; [8]", "result": 0.08, "unit": "µM"}]}
{"compound": "CN1C(=O)CN=C(c2ccc(Cl)cc2)c2cc([N+](=O)[O-])ccc21", "note": "[Compound 14, 5-(4-chlorophenyl)-1-methyl-7-nitro-3H--1,4-benzodiazepin-2(1H)--one]", "values": [{"measurement": "EC10", "setting": "[2]", "result": 60000, "unit": "nM"}, {"measurement": "IC50", "setting": "[3]; [8]", "result": 0.034, "unit": "µM"}]}
{"compound": "CN1C(=O)CN=C(c2ccccc2Cl)c2ccccc21", "note": "[Compound 15, 5-(2-chlorophenyl)-1-methyl-3H--1,4-benzodiazepin-2(1H)--one]", "values": [{"measurement": "EC10", "setting": "[2]", "result": 60000, "unit": "nM"}, {"measurement": "IC50", "setting": "[3]; [8]", "result": 0.175, "unit": "µM"}]}
{"compound": "CN1C(=O)CN=C(c2ccccc2Cl)c2cc(Cl)ccc21", "note": "[Compound 16, 7-chloro-5-(2-chlorophenyl)-1,3-dihydro-1-methyl-2H--1,4-benzodiazepin-2-one]", "values": [{"measurement": "EC10", "setting": "[2]", "result": 60000, "unit": "nM"}, {"measurement": "IC50", "setting": "[3]; [8]", "result": 0.011, "unit": "µM"}]}
{"compound": "O=C1CN=C(c2ccccc2Cl)c2cc([N+](=O)[O-])ccc2N1", "note": "[clonazepam, reference compound]", "values": [{"measurement": "inhibition of tritiated diazepam binding", "setting": "[5]; 10 μM final concentration", "result": "did not inhibit diazepam binding"}]}
